Measurements from ChEMBL document CHEMBL1131237 (J Med Chem, 1998).
Values joined by “and” are separate entries in the source; they are usually repeats but may differ in a detail not shown here. Identical values can stand only once.

How the values were obtained:
[1] = target: Sodium-dependent dopamine transporter (Rattus norvegicus) (UniProt P23977)
[2] = target: T1, Sodium-dependent dopamine transporter (Rattus norvegicus, UniProt P23977); assay: Ability to displace [3H]WIN-35428 binding to dopamine transporter from rat striatal membranes
[3] = target: Sodium-dependent dopamine transporter (Rattus norvegicus) (UniProt P23977); assay: Hill coefficient was determined
[4] = target: T1, Sodium-dependent dopamine transporter; assay: Inhibition of high-affinity uptake of [3H]dopamine at dopamine transporter into rat striatal nerve endings (synaptosomes); type: subcellular, Brain

T1 sequence (P23977 whole entry): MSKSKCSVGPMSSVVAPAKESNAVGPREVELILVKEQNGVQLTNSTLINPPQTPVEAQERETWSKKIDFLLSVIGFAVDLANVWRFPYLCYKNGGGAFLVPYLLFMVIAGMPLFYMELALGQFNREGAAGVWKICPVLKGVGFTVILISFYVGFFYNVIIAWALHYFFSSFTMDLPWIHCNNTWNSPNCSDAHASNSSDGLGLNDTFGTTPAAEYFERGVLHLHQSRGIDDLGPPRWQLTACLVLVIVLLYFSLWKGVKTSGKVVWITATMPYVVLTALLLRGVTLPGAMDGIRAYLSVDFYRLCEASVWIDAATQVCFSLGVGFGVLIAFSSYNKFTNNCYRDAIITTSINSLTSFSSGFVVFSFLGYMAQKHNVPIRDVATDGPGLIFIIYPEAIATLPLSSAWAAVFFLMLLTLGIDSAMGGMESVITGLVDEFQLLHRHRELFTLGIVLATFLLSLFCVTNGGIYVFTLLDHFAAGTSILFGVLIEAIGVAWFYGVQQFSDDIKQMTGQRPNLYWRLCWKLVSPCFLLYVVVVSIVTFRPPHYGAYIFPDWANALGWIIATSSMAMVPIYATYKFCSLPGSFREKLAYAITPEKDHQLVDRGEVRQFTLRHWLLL
Chain of Sodium-dependent dopamine transporter (Rattus norvegicus) (P23977 whole entry): as above

SMILES	Hill coefficient [1]	IC50 [2]	Hill coefficient [3]	IC50 [4]
CN1CC[C@H](c2ccc(Cl)cc2)C(CO)C1 (single isomer, unassigned; (+)-13) [listing 1 of 2 here]	0.85 and 1.09	–	–	–
CC(=O)OC[C@@H]1CN(C)CC[C@@H]1c1ccc(Cl)cc1	0.66 and 1.03	–	–	–
CC(=O)OCC1CN(C)CC[C@@H]1c1ccc(Cl)cc1 (single isomer, unassigned)	0.76	461 nM	–	–
COC(=O)C1CN(C)CC[C@@H]1c1ccccc1 (stereo partly specified)	–	769 nM	1.02	–
COC(=O)[C@H]1[C@@H](OC(=O)c2ccccc2)CC2CC[C@H]1N2C (single isomer, unassigned)	0.87 and 1.06	–	–	–
COC(=O)[C@H]1CN(C)CC[C@H]1c1ccc(Cl)cc1	–	653 nM	0.96 and 1.08	195 nM
COC(=O)[C@H]1CN(C)CC[C@@H]1c1ccc(Cl)cc1 (racemic)	0.91	197 nM	–	–
COC(=O)C1CN(C)CC[C@H]1c1ccc(Cl)cc1 (single isomer, unassigned)	–	–	0.81 and 0.95	5090 nM
CC(=O)OCC1CN(C)CC[C@H]1c1ccc(Cl)cc1 (stereo partly specified)	0.89 and 1.07	928 nM	–	2020 nM
CN1CC[C@H](c2ccc(Cl)cc2)C(CO)C1 (single isomer, unassigned; (+)-13) [listing 2 of 2 here]	–	240 nM	–	683 nM
CN1CC[C@@H](c2ccc(Cl)cc2)C(CO)C1 (stereo partly specified)	0.66	442 nM	–	–
COC(=O)[C@@H]1CN(C)CC[C@@H]1c1ccc(Cl)cc1 (racemic)	0.91 and 1.04	–	–	–
COC(=O)[C@@H]1CN(C)CC[C@@H]1c1ccc(Cl)cc1	0.78 and 0.94	–	–	–
CN1CC[C@H](c2ccc(Cl)cc2)C(CO)C1 (single isomer, unassigned; (-)-5) [listing 1 of 2 here]	–	75.3 nM	–	49 nM
COC(=O)C1CN(C)CC[C@@H]1c1ccc(Cl)cc1 (single isomer, unassigned)	0.78 and 0.97	–	–	–
CCC[C@@H]1CN(C)CC[C@@H]1c1ccc(Cl)cc1	–	–	0.64 and 1.04	–
CN1CC[C@H](c2ccc(Cl)cc2)C(CO)C1 (single isomer, unassigned; (-)-5) [listing 2 of 2 here]	0.56 and 1.04	–	–	–
CCCC1CN(C)CC[C@@H]1c1ccc(Cl)cc1 (single isomer, unassigned)	–	17.2 nM	0.85 and 1.03	23.2 nM
